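96-well plates; 48 h exposure; 5 concentrations. Endpoints by linear interpolation between flanking doses. Not reached: highest tested concentration assigned. GI50 = concentration required for 50% inhibition of growth. The concentration for full growth arrest is given as TGI.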
Key:
Test in all cases: growth of human tumour cells (NCI), 48 h
NCI-H23 lung = tested on: NCI-H23 lung
SNB-75 CNS = tested on: SNB-75 CNS
ACHN renal = tested on: ACHN renal
HCT-15 colon = tested on: HCT-15 colon
HS 578T breast = tested on: HS 578T breast
A549 NSCLC = tested on: A549 NSCLC
BT-549 breast = tested on: BT-549 breast
MCF7 breast = tested on: MCF7 breast
IGROV1 ovarian = tested on: IGROV1 ovarian
T-47D breast = tested on: T-47D breast

COc1cc([C@@H]2c3cc4c(cc3C(Br)[C@H]3COC(=O)[C@H]23)OCO4)cc(OC)c1OC (some centres undefined)
GI50 (NCI-H23 lung): 0.321 µM
TGI (NCI-H23 lung): > 100 µM
GI50 (SNB-75 CNS): 0.271 µM
TGI (SNB-75 CNS): > 100 µM
GI50 (ACHN renal): 0.241 µM
TGI (ACHN renal): > 100 µM
GI50 (HCT-15 colon): 0.253 µM
TGI (HCT-15 colon): > 100 µM
GI50 (HS 578T breast): 0.142 µM
TGI (HS 578T breast): 0.707 µM
GI50 (A549 NSCLC): 0.313 µM
TGI (A549 NSCLC): > 100 µM
GI50 (BT-549 breast): 0.254 µM
GI50 (MCF7 breast): 0.168 µM
TGI (MCF7 breast): > 100 µM
GI50 (IGROV1 ovarian): 0.291 µM
TGI (IGROV1 ovarian): > 65.9 µM
GI50 (T-47D breast): > 100 µM
TGI (T-47D breast): > 100 µM

CN(C)c1ccc(C(=O)c2ccc(N(C)C)c(N)c2)cc1N
GI50 (NCI-H23 lung): 9.75 µM
TGI (NCI-H23 lung): > 80.8 µM
GI50 (SNB-75 CNS): 1.05 µM
TGI (SNB-75 CNS): > 23.6 µM
GI50 (ACHN renal): 14.8 µM
TGI (ACHN renal): > 100 µM
GI50 (HCT-15 colon): 2.35 µM
TGI (HCT-15 colon): > 100 µM
GI50 (HS 578T breast): 1.75 µM
TGI (HS 578T breast): > 21.2 µM
GI50 (A549 NSCLC): 8.4 µM
TGI (A549 NSCLC): > 100 µM
GI50 (BT-549 breast): 8.02 µM
TGI (BT-549 breast): > 88.2 µM
GI50 (MCF7 breast): 0.686 µM
TGI (MCF7 breast): > 59.9 µM
GI50 (IGROV1 ovarian): 1.86 µM
TGI (IGROV1 ovarian): > 42.5 µM
GI50 (T-47D breast): 4.3 µM
TGI (T-47D breast): > 46.1 µM

Cc1ccc2c[c]1[Hg][CH2]COS2(=O)=O
GI50 (NCI-H23 lung): 23.4 µM
TGI (NCI-H23 lung): 49.2 µM
GI50 (SNB-75 CNS): > 100 µM
TGI (SNB-75 CNS): > 100 µM
GI50 (ACHN renal): 16.2 µM
TGI (ACHN renal): 29.7 µM
GI50 (HCT-15 colon): 16.4 µM
TGI (HCT-15 colon): 30 µM
GI50 (HS 578T breast): 23.7 µM
TGI (HS 578T breast): 58.1 µM
GI50 (A549 NSCLC): > 100 µM
TGI (A549 NSCLC): > 100 µM
GI50 (BT-549 breast): 17.8 µM
TGI (BT-549 breast): 31.6 µM
GI50 (MCF7 breast): 17.9 µM
TGI (MCF7 breast): 39.4 µM
GI50 (IGROV1 ovarian): 5.3 µM
TGI (IGROV1 ovarian): 20.7 µM
GI50 (T-47D breast): 15 µM
TGI (T-47D breast): 29.7 µM

N#Cc1c2ccccc2c2n1-c1ccccc1OC(c1ccccc1)C2=O (centres undefined)
GI50 (NCI-H23 lung): 2.95 µM
TGI (NCI-H23 lung): 15 µM
GI50 (SNB-75 CNS): 2.23 µM
TGI (SNB-75 CNS): 11.9 µM
GI50 (ACHN renal): 3.73 µM
TGI (ACHN renal): > 100 µM
GI50 (HCT-15 colon): 3.12 µM
TGI (HCT-15 colon): 12.5 µM
GI50 (HS 578T breast): 3.53 µM
TGI (HS 578T breast): 37 µM
GI50 (A549 NSCLC): 3.11 µM
TGI (A549 NSCLC): 29.3 µM
GI50 (BT-549 breast): 2.84 µM
TGI (BT-549 breast): 7.76 µM
GI50 (MCF7 breast): 3.8 µM
TGI (MCF7 breast): 14.6 µM
GI50 (IGROV1 ovarian): 4.37 µM
TGI (IGROV1 ovarian): 19.2 µM
GI50 (T-47D breast): 3.28 µM
TGI (T-47D breast): 15.6 µM

C[C@@H]1COCCN1c1nc(-c2cnc(N)cc2C(F)F)nc(N2[C@H](C)COC[C@@H]2C)n1
GI50 (NCI-H23 lung): 0.267 µM
TGI (NCI-H23 lung): 15.7 µM
GI50 (SNB-75 CNS): 0.0682 µM
TGI (SNB-75 CNS): 0.571 µM
GI50 (ACHN renal): 0.265 µM
TGI (ACHN renal): 11.8 µM
GI50 (HCT-15 colon): 0.236 µM
TGI (HCT-15 colon): 12.4 µM
GI50 (HS 578T breast): 0.128 µM
TGI (HS 578T breast): 0.611 µM
GI50 (A549 NSCLC): 0.235 µM
TGI (A549 NSCLC): 12.1 µM
GI50 (BT-549 breast): 0.144 µM
TGI (BT-549 breast): 1.75 µM
GI50 (MCF7 breast): 0.115 µM
TGI (MCF7 breast): 11.4 µM
GI50 (IGROV1 ovarian): 0.0845 µM
TGI (IGROV1 ovarian): 1.77 µM
GI50 (T-47D breast): 0.0422 µM
TGI (T-47D breast): 0.644 µM

N#Cc1cccc(C(=O)c2cnn(-c3ccc(F)cc3)c2N)c1
GI50 (NCI-H23 lung): > 25 µM
TGI (NCI-H23 lung): > 25 µM
GI50 (SNB-75 CNS): > 11.5 µM
TGI (SNB-75 CNS): > 22.4 µM
GI50 (ACHN renal): > 25 µM
TGI (ACHN renal): > 25 µM
GI50 (HCT-15 colon): > 25 µM
TGI (HCT-15 colon): > 25 µM
GI50 (HS 578T breast): > 25 µM
TGI (HS 578T breast): > 25 µM
GI50 (A549 NSCLC): > 25 µM
TGI (A549 NSCLC): > 25 µM
GI50 (BT-549 breast): > 25 µM
TGI (BT-549 breast): > 25 µM
GI50 (MCF7 breast): > 25 µM
TGI (MCF7 breast): > 25 µM
GI50 (IGROV1 ovarian): > 25 µM
TGI (IGROV1 ovarian): > 25 µM
GI50 (T-47D breast): > 25 µM
TGI (T-47D breast): > 25 µM
